The results in this text go back to patent US7462643B1, “Essential fatty acids in the prevention of cardiovascular events” (Pfizer Italia S.R.L., priority 1999, dated 2008).

This assay concerns patients who have suffered from a myocardial infarction. The experiment in a line: clinical trial of 3.5 years in infarcted patients on standard therapy, post-infarction mortality versus control group. The format is in vivo, human. The following applies: added to standard therapy. The source says: The efficacy of the treatment, according to the invention, is, for instance, proven by the fact that a surprising and highly significant reduction in post-infarction mortality was observed by such treatment in a clinical trial that lasted for 3.5 years, with protocols substantially designed as follows: • 1 a “control” group received the standard therapy which is usually given to infarcted patients; • 2 a “treatment” group, besides the therapy that was given to the “control” group, received 85% EPA+DHA (1 g daily); • 3 a “treatment” group, besides the therapy that was given to the “control” group received vitamin E; and • 4 a “treatment” group, besides the therapy that was given to the control group, received vitamin E and 85% EPA+DHA (1 g daily). […] From the above clinical results, the person skilled in the art will appreciate that, the use of a pharmaceutical composition in accordance to the present invention is certainly useful in human therapy in preventing mortality in patients who have suffered from a myocardial infarction.

In the case of vitamin E, the “result on mortality as compared to the control group (in words)” value was “no significant results”.
